From paper PMC11303535 (Nature Communications, 2024)

Columns and labels:
[1] = target: hTRPV1 (Homo sapiens, UniProt Q8NER1); assay: FLIPR calcium influx assay, hTRPV1 WT in HEK293T; assay type: cell-based; details: 3.33 µM capsaicin
[2] = target: hTRPV1 S512F (Homo sapiens, UniProt Q8NER1, S512F); assay: FLIPR calcium influx assay, hTRPV1 S512F mutant; assay type: cell-based; details: also unresponsive to pH
[3] = tested on: TRPV1; details: CHL at concentrations up to 250 μM; cited from earlier work

Sequence of hTRPV1 S512F (Q8NER1 whole entry S512F): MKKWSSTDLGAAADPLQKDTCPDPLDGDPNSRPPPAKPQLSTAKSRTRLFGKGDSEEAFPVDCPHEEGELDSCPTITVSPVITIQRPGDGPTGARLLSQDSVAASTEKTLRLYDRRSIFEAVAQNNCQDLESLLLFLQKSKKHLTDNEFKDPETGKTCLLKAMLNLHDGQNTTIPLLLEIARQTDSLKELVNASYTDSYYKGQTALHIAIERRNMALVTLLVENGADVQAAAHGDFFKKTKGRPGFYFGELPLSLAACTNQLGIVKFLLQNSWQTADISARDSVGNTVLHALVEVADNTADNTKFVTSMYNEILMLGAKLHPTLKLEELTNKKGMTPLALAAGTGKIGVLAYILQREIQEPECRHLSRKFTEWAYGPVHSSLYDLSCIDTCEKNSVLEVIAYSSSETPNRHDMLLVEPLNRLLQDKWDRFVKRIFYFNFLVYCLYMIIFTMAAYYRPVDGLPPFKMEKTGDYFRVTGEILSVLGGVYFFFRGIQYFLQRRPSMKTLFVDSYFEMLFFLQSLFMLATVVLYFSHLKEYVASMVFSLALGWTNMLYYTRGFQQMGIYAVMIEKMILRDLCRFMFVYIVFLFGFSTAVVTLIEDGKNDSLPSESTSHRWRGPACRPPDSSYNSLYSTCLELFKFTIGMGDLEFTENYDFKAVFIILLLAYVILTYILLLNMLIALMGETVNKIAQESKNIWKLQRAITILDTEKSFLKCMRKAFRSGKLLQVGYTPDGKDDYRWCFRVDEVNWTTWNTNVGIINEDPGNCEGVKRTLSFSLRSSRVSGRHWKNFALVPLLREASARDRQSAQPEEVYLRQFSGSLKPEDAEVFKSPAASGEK
Sequence of hTRPV1 (Q8NER1 whole entry): as the sequence (Q8NER1 whole entry S512F) above, with F512S counted along it

Row | SMILES | activation of hTRPV1 by capsaicin [1] | response of mutant to capsaicin [2] | inhibition of TRPV1 currents evoked by 2-APB [3]
1 | COc1cc(CNC(=O)CCCC/C=C/C(C)C)ccc1O [capsaicin] | 80–90% | unresponsive | –
2 | CC(C)CCC[C@@H](C)[C@H]1CC[C@H]2[C@@H]3CC=C4C[C@@H](O)CC[C@]4(C)[C@H]3CC[C@]12C [CHL, cholesterol] | – | – | not inhibited
